Experiment [1] concerns NHL cell lines (Granta-519, HBL-2, Jeko-1, Rec-1, Z-138, Karpas-422). The experiment can be described thus: Trypan blue exclusion viability/proliferation test, NHL cell line panel. Type of experiment: cell-based. Conditions: chemotherapeutic alone (Fludarabine 0.25 μg/ml; Mitoxantrone 0.25 and 0.5 μg/ml), across cell lines. The source says:
The following Non-Hodgkin Lymphoma (NHL) cell lines were used in the experiments: Granta-519, HBL-2, Rec-1 and Z-138 as Mantle Cell Lymphoma cell lines and a Karpas-422 as a Diffuse Large B-Cell Lymphoma cell line. All cell lines were obtained from the “Deutsche Sammlung von Mikroorganismen and Zellkulturen GmbH” (DSMZ), Braunschweig, Germany. […] Granta 519, HBL-2, JeKo-1, Rec-1 and Z-138 were cultivated in RPMI-1640 medium with 10% heat-inactivated FCS and 1% Penicillin/Streptomycin. The density of viable cells was determined with BeckmanCoulter ViCell™ Cell Viability Analyzer on the basis of the trypan blue cell exclusion method. The test is based on the principle that viable cells have an intact cell membrane that blocks the uptake of trypan blue whereas dead cells have lost this ability. Therefore viable cells have a transparent cytoplasm whereas dead cells can be identified due to their blue cytoplasm. […] Trypan-blue exclusion tests were used to analyze cell viability. […] These concentrations were determined in pre-experiments on MCL cells • 1. 0.25 μg/ml Fludarabine • 2. 0.25 and 0.5 μg/ml Mitoxantrone 1 ml samples were taken at 0 h, 24 h, 48 h, 72 h every day and the number of viable cells was determined. […] Experiments were independently performed three times.

Experiment [2] deals with HBL-2 MCL cells. Description: Trypan blue exclusion viability/proliferation test, HBL-2. Type of experiment: cell-based. The following applies: mono-exposure 1 μg/ml. The protocol: (§1) The following Non-Hodgkin Lymphoma (NHL) cell lines were used in the experiments: Granta-519, HBL-2, Rec-1 and Z-138 as Mantle Cell Lymphoma cell lines and a Karpas-422 as a Diffuse Large B-Cell Lymphoma cell line. All cell lines were obtained from the “Deutsche Sammlung von Mikroorganismen and Zellkulturen GmbH” (DSMZ), Braunschweig, Germany.
(§2) All cell lines were stored according to standard procedures and cultivated at 37° C., 5% CO2- and 95% relative humidity in a CO2 incubator. Granta 519, HBL-2, JeKo-1, Rec-1 and Z-138 were cultivated in RPMI-1640 medium with 10% heat-inactivated FCS and 1% Penicillin/Streptomycin.
(§3) The density of viable cells was determined with BeckmanCoulter ViCell™ Cell Viability Analyzer on the basis of the trypan blue cell exclusion method. The test is based on the principle that viable cells have an intact cell membrane that blocks the uptake of trypan blue whereas dead cells have lost this ability. Therefore viable cells have a transparent cytoplasm whereas dead cells can be identified due to their blue cytoplasm.
(§4) Trypan-blue exclusion tests were used to analyze cell viability.
(§5) These concentrations were determined in pre-experiments on MCL cells • 1. 0.25 μg/ml Fludarabine • 2. 0.25 and 0.5 μg/ml Mitoxantrone
(§6) 1 ml samples were taken at 0 h, 24 h, 48 h, 72 h every day and the number of viable cells was determined. […]

Experiment [3] has as its system human Z138 mantle cell lymphoma xenograft. Description: Tumor growth inhibition study in vivo, Z138 xenograft. Also noted: species or system SCID beige mice. The following applies: day 36 after tumor cell inoculation; antibodies 1 mg/kg i.v. day 22 and 29; fludarabine 40 mg/kg i.p. day 22-25. As for the experimental part: Antibody buffer included histidine, trehalose and polysorbate 20.
Cells were co-injected with Matrigel.
Experimental study protocol was reviewed and approved by local government. […] Continuous health monitoring was carried out on regular basis. Diet food (Provimi Kliba 3337) and water (acidified pH 2.5-3) were provided ad libitum.
Animals were controlled daily for clinical symptoms and detection of adverse effects.
The corresponding vehicle was administered on the same days.

Experiment [4] concerns Rec-1 MCL cells. Description: Trypan blue exclusion viability/proliferation test, Rec-1. In kind it is cell-based. Conditions: mono-exposure 1 μg/ml. The protocol:
as §1, §2, §3, §4, §5, §6

For experiment [5], the system named is Granta-519 MCL cells. The experiment can be described thus: Trypan blue exclusion viability/proliferation test, Granta-519. Type of experiment: cell-based. Conditions: mono-exposure 1 μg/ml. As for the experimental part: as §1, §2, §3, §4, §5, §6
In experiment [6] the test system is Jeko-1 MCL cells. Description: Trypan blue exclusion viability/proliferation test, Jeko-1. Type of experiment: cell-based. Conditions: mono-exposure 1 μg/ml. As for the experimental part:
as §2, §3, §4, §5
1 ml samples were taken at 0 h, 24 h, 48 h, 72 h every day and the number of viable cells was determined. The reduction of cell proliferation was used for a fractional product calculation (synergism >0.1; additive effect −0.1<x<0.1; antagonism <−0.1). Experiments were independently performed three times.

On to `O=C1c2c(O)ccc(O)c2C(=O)c2c(NCCNCCO)ccc(NCCNCCO)c21` [Mitoxantrone, 1,4-dihydroxy-5,8-bis[2-(2-hydroxyethylamino)ethylamino]-anthracene-9,10-dione], for which, in experiment [1], the cell reduction is listed as 80-95%.

Turning to “B-HH6-B-KV1 GE: afucosylated type II anti-CD20 antibody; humanized B-Ly1 IgG1, VH SEQ ID NO: 7 (B-HH6), VL SEQ ID NO: 20 (B-KV1), glycoengineered”, the cell reduction in experiment [2] is reported as 20-30%; in experiment [4], 30-45%; in experiment [5] it was 65-75%; in experiment [6], 5%. Further, in experiment [3], the “tumor growth inhibition compared to the control group” value came to 86%.

For the origin of these results see US20150274834A1, “COMBINATION THERAPY OF AN AFUCOSYLATED CD20 ANTIBODY WITH FLUDARABINE AND/OR MITOXANTRONE” (Roche Glycart AG, priority 2009, published 2015).
